# Measured values reported in US8993574B2, “Pyrrole antifungal agents” (F2G Ltd, priority 2008, dated 2015).
# Tests used:
# Type in all cases: cell-based
# Aspergillus niger [1] = experiment: MIC, RPMI medium; conditions: Aspergillus niger, MIC banded into grades, read-out: MIC grade, A. niger
# In short: (§1)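 Broth microdilution in RPMI with 2% glucose, 0.135 M MOPS pH 7.0; compounds as doubling dilutions, 50-0.05 mg/L, inoculum 1−2×10^4 cfu/mL. Incubated 24-48 h at 35° C; growth by OD 485 nm. MIC is lowest concentration giving >80% growth inhibition versus drug-free control.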
# [2] = test system: Aspergillus fumigatus AF210; experiment: MIC, RPMI medium; conditions: Aspergillus fumigatus, AF210, MIC banded into grades, read-out: MIC grade, A. fumigatus 210
# In short: as §1
# Aspergillus flavus [3] = experiment: MIC, RPMI medium; conditions: Aspergillus flavus, MIC banded into grades, read-out: MIC grade, A. flavus
# In short: as §1
# Aspergillus terreus AT49 [4] = experiment: MIC, RPMI medium; conditions: Aspergillus terreus, AT49, MIC banded into grades, read-out: MIC grade, A. terreus 49
# In short: as §1
# [5] = test system: Aspergillus fumigatus AF293; experiment: MIC, RPMI medium; conditions: Aspergillus fumigatus, AF293, MIC banded into grades, read-out: MIC grade, A. fumigatus
# In short: as §1
# Aspergillus terreus AT4 [6] = experiment: MIC, RPMI medium; conditions: Aspergillus terreus, AT4, MIC banded into grades, read-out: MIC grade, A. terreus
# In short: as §1
# Aspergillus niger [7] = experiment: MIC, YAG medium; conditions: Aspergillus niger, 24 h at 35° C, MIC banded into grades, read-out: MIC grade, A. niger
# In short: (§2)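 OD 485 nm read-out after 24 h at 35° C; MIC = lowest concentration inhibiting growth >70% vs drug-free control, in mg/L. Inoculum 1−2×10^4 cfu/mL in YAG medium; drug range 50-0.05 mg/L, retested at 0.5-0.0005 mg/L when needed.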
# [8] = test system: Aspergillus fumigatus AF210; experiment: MIC, YAG medium; conditions: Aspergillus fumigatus, 24 h at 35° C, MIC banded into grades, read-out: MIC grade, A. fumigatus 210
# In short: as §2
# Aspergillus flavus [9] = experiment: MIC, YAG medium; conditions: Aspergillus flavus, 24 h, 24 h at 35° C, MIC banded into grades, read-out: MIC grade, A. flavus
# In short: as §2
# Aspergillus terreus AT49 [10] = experiment: MIC, YAG medium; conditions: Aspergillus terreus, 24 h at 35° C, MIC banded into grades, read-out: MIC grade, A. terreus 49
# In short: as §2
# [11] = test system: Aspergillus fumigatus AF293; experiment: MIC, YAG medium; conditions: Aspergillus fumigatus, 24 h at 35° C, MIC banded into grades, read-out: MIC grade, A. fumigatus
# In short: as §2
# Aspergillus terreus AT4 [12] = experiment: MIC, YAG medium; conditions: Aspergillus terreus, 24 h at 35° C, MIC banded into grades, read-out: MIC grade, A. terreus
# In short: as §2
structure (smiles),measurement,setting,value
"COCCn1c(C)cc(-c2ccccc2)c1C(=O)C(=O)Nc1cccc2ccncc12 [Example 42, N-Isoquinolin-8-yl-2-[1-(2-methoxy-ethyl)-5-methyl-3-phenyl-1H-pyrrol-2-yl]-2-oxo-acetamide]",MIC,Aspergillus niger [1],> 10 µg/mL
same,MIC,[2],> 10 µg/mL
same,MIC,Aspergillus flavus [3],> 10 µg/mL
same,MIC,Aspergillus terreus AT49 [4],> 10 µg/mL
same,MIC,[5],1 to 10 µg/mL
same,MIC,Aspergillus terreus AT4 [6],> 10 µg/mL
same,MIC,Aspergillus niger [7],> 10 µg/mL
same,MIC,[8],1 to 10 µg/mL
same,MIC,Aspergillus flavus [9],> 10 µg/mL
same,MIC,Aspergillus terreus AT49 [10],> 10 µg/mL
same,MIC,[11],1 to 10 µg/mL
same,MIC,Aspergillus terreus AT4 [12],> 10 µg/mL
"Cc1cc(-c2ccccc2)c(C(=O)C(=O)Nc2cccc3ccncc23)n1C [Example 43, 2-(1,5-Dimethyl-3-phenyl-1H-pyrrol-2-yl)-N-isoquinolin-8-yl-2-oxo-acetamide]",MIC,Aspergillus niger [1],> 10 µg/mL
same,MIC,[2],> 10 µg/mL
same,MIC,Aspergillus flavus [3],1 to 10 µg/mL
same,MIC,Aspergillus terreus AT49 [4],> 10 µg/mL
same,MIC,[5],> 10 µg/mL
same,MIC,Aspergillus terreus AT4 [6],1 to 10 µg/mL
same,MIC,Aspergillus niger [7],> 10 µg/mL
same,MIC,[8],1 to 10 µg/mL
same,MIC,Aspergillus flavus [9],< 1 µg/mL
same,MIC,Aspergillus terreus AT49 [10],1 to 10 µg/mL
same,MIC,[11],1 to 10 µg/mL
same,MIC,Aspergillus terreus AT4 [12],1 to 10 µg/mL
"Cc1cc(-c2ccccc2)c(C(=O)C(=O)Nc2ccc3ccccc3c2)n1C [Example 44, 2-(1,5-Dimethyl-3-phenyl-1H-pyrrol-2-yl)-N-naphthalen-2-yl-2-oxo-acetamide]",MIC,Aspergillus niger [1],< 1 µg/mL
same,MIC,[2],< 1 µg/mL
same,MIC,Aspergillus flavus [3],< 1 µg/mL
same,MIC,Aspergillus terreus AT49 [4],< 1 µg/mL
same,MIC,[5],< 1 µg/mL
same,MIC,Aspergillus terreus AT4 [6],< 1 µg/mL
same,MIC,Aspergillus niger [7],< 1 µg/mL
same,MIC,[8],< 1 µg/mL
same,MIC,Aspergillus flavus [9],< 1 µg/mL
same,MIC,Aspergillus terreus AT49 [10],< 1 µg/mL
same,MIC,[11],< 1 µg/mL
same,MIC,Aspergillus terreus AT4 [12],< 1 µg/mL
"Cc1cc(C)nc(N2CCN(c3ccc(NC(=O)C(=O)c4c(-c5ccccc5)ccn4C)cc3)CC2)c1 [Example 45, N-{4-[4-(4,6-Dimethyl-pyridin-2-yl)-piperazin-1-yl]-phenyl}-2-(1-methyl-3-phenyl-1H-pyrrol-2-yl)-2-oxo-acetamide]",MIC,Aspergillus niger [1],< 1 µg/mL
same,MIC,[2],< 1 µg/mL
same,MIC,Aspergillus flavus [3],< 1 µg/mL
same,MIC,Aspergillus terreus AT49 [4],< 1 µg/mL
same,MIC,[5],< 1 µg/mL
same,MIC,Aspergillus terreus AT4 [6],< 1 µg/mL
same,MIC,Aspergillus niger [7],< 1 µg/mL
same,MIC,[8],< 1 µg/mL
same,MIC,Aspergillus flavus [9],< 1 µg/mL
same,MIC,Aspergillus terreus AT49 [10],< 1 µg/mL
same,MIC,[11],< 1 µg/mL
same,MIC,Aspergillus terreus AT4 [12],< 1 µg/mL
"Cc1cc(C)nc(N2CCN(c3ccc(NC(=O)C(=O)c4cc(-c5ccccc5)cn4C)cc3)CC2)c1 [Example 46, N-{4-[4-(4,6-Dimethyl-pyridin-2-yl)-piperazin-1-yl]-phenyl}-2-(1-methyl-4-phenyl-1H-pyrrol-2-yl)-2-oxo-acetamide]",MIC,Aspergillus niger [1],> 10 µg/mL
same,MIC,[2],> 10 µg/mL
same,MIC,Aspergillus flavus [3],> 10 µg/mL
same,MIC,Aspergillus terreus AT49 [4],1 to 10 µg/mL
same,MIC,[5],> 10 µg/mL
same,MIC,Aspergillus terreus AT4 [6],1 to 10 µg/mL
same,MIC,Aspergillus niger [7],> 10 µg/mL
same,MIC,[8],< 1 µg/mL
same,MIC,Aspergillus flavus [9],< 1 µg/mL
same,MIC,Aspergillus terreus AT49 [10],< 1 µg/mL
same,MIC,[11],1 to 10 µg/mL
same,MIC,Aspergillus terreus AT4 [12],> 10 µg/mL
"Cc1cc(C)nc(N2CCN(c3ccc(NC(=O)C(=O)c4c(-c5ccccc5)cc(C)n4Cc4ccccc4)cc3)CC2)c1 [Example 48, 2-(1-Benzyl-5-methyl-3-phenyl-1H-pyrrol-2-yl)-N-{4-[4-(4,6-dimethyl-pyridin-2-yl)-piperazin-1-yl]-phenyl}-2-oxo-acetamide]",MIC,Aspergillus niger [1],> 10 µg/mL
same,MIC,[2],> 10 µg/mL
same,MIC,Aspergillus flavus [3],> 10 µg/mL
same,MIC,Aspergillus terreus AT49 [4],> 10 µg/mL
same,MIC,[5],> 10 µg/mL
same,MIC,Aspergillus terreus AT4 [6],> 10 µg/mL
same,MIC,Aspergillus niger [7],> 10 µg/mL
same,MIC,[8],< 1 µg/mL
same,MIC,Aspergillus flavus [9],> 10 µg/mL
same,MIC,Aspergillus terreus AT49 [10],> 10 µg/mL
same,MIC,[11],1 to 10 µg/mL
same,MIC,Aspergillus terreus AT4 [12],> 10 µg/mL
"Cc1cc(-c2ccccc2)c(C(=O)C(=O)Nc2cccc3c(N4CCN(C)CC4)cccc23)n1C [Example 49, 2-(1,5-Dimethyl-3-phenyl-1H-pyrrol-2-yl)-N-[5-(4-methyl-piperazin-1-yl)-naphthalen-1-yl]-2-oxo-acetamide]",MIC,Aspergillus niger [1],> 10 µg/mL
same,MIC,[2],> 10 µg/mL
same,MIC,Aspergillus flavus [3],1 to 10 µg/mL
same,MIC,Aspergillus terreus AT49 [4],1 to 10 µg/mL
same,MIC,[5],1 to 10 µg/mL
same,MIC,Aspergillus terreus AT4 [6],1 to 10 µg/mL
same,MIC,Aspergillus niger [7],> 10 µg/mL
same,MIC,[8],1 to 10 µg/mL
same,MIC,Aspergillus flavus [9],< 1 µg/mL
same,MIC,Aspergillus terreus AT49 [10],< 1 µg/mL
same,MIC,[11],1 to 10 µg/mL
same,MIC,Aspergillus terreus AT4 [12],> 10 µg/mL
